From patent US7812017B2, “4-substituted indole and indoline compounds” (Biovitrum AB (publ.), priority 2006, dated 2010)
pKi: −log10 of the molar value. Structures can show the parent of a compound that is named as a salt.

Assays:
human 5-HT6 receptor [1] = target: T1, human 5-HT6 receptor (Homo sapiens, UniProt P50406); assay: biochemical
human 5-HT6 receptor [2] = target: T1, human 5-HT6 receptor; assay: 5-HT6 receptor binding assay ([3H]-LSD, SPA, membranes of transfected HEK293 cells); conditions: over three experiments

T1 sequence (P50406 whole entry): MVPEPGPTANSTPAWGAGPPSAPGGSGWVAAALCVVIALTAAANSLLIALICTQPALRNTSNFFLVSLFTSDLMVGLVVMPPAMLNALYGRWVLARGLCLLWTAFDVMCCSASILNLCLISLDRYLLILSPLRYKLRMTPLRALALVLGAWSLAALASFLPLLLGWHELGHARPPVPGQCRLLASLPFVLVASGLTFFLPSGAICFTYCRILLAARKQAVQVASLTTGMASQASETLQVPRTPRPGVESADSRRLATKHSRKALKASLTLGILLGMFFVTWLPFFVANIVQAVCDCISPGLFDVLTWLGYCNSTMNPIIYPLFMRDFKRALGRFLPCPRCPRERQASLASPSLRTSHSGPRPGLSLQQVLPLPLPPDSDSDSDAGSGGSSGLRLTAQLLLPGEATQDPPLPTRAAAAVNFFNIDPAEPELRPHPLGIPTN

Row | Hill coefficient (human 5-HT6 receptor [2]) | SMILES | pKi (human 5-HT6 receptor [1])
1 | – | CN(C)Cc1cccc2c1ccn2S(=O)(=O)c1ccccc1 [Example 47, N,N-Dimethyl-1-[1-(phenylsulfonyl)-1H-indol-4-yl]methanamine trifluoroacetate] | 8.48
2 | – | O=S(=O)(c1ccccc1)n1ccc2c(CN3CCNCC3)cccc21 [Example 1, 1-(Phenylsulfonyl)-4-(piperazin-1-ylmethyl)-1H-indole hydrochloride] | 8.74
3 | – | O=S(=O)(c1ccccc1)n1ccc2c(CN3CCC3)cccc21 [Example 87, 4-Azetidin-1-ylmethyl)-1-(phenylsulfonyl)-1H-indole trifluoroacetate] | 9.05
4 | 0.94 (SD 0.09) | NCCc1c[nH]c2ccc(O)cc12 [Example 5-HT, 5-hydroxytryptamine] | –
